Key:
[1] = target: T1, TNKS2 ARC4 (488–649) (Homo sapiens, UniProt Q9H2K2); test: Isothermal titration calorimetry (ITC); assay type: binding; settings: global analysis n = 5
T1 construct: The cell was filled with TNKS2 ARC4 (488–649); His6-GST (cleaved yes); made in house; host or cells: E. coli BL21-CodonPlus (DE3)-RIL
T1 sequence (Q9H2K2 488-649): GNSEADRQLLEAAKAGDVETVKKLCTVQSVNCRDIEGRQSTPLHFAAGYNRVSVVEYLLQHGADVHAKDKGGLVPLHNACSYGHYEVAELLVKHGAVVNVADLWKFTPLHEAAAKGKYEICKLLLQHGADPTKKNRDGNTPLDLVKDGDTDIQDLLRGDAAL
Procedure: We next used isothermal titration calorimetry (ITC) to confirm the compound 9:TNKS2 ARC4 binding affinity, titrating the fragment (5 mM, 1% DMSO) into TNKS2 ARC4 (200 μM, 1% DMSO).
An ITC200 instrument (MicroCal) was used, fitted with a twisted syringe needle, stirring at 750 rpm. All solutions were degassed using a ThermoVac before use. The reference cell was filled with buffer (200 μL, 25 mM HEPES-NaOH pH 7.5, 100 mM NaCl, 1 mM TCEP, 1% v/v DMSO). The cell was filled with TNKS2 ARC4 (488–649) (200 μL, 200 μM in identical buffer as above). 20 injections (1 × 0.5 μL, then 19 × 2 μL) of compound 9 (5 mM, 1% v/v DMSO in buffer) were performed, with 180 s between injections. Blank correction was performed by titrating compound into buffer alone (25 mM HEPES-NaOH pH 7.5, 100 mM NaCl, 1 mM TCEP, 1% v/v DMSO) using the same injection protocol as above. The first injections from each run were discarded from data analysis. Data were analysed using Origin software with a one-site binding model. Titrations were repeated n = 5. Global analysis was performed using SEDPHAT software.

[2] = target: T2, TNKS2 ARC4 (Homo sapiens, UniProt Q9H2K2); test: Fluorescence polarisation (FP) competition assay with Cy5-labelled TBM peptide probe; assay type: binding; settings: 5 nM Cy5-RSPPDGQS probe, 5 µM TNKS2 ARC4
T2 construct: The cell was filled with TNKS2 ARC4 (488–649); His6-GST; made in house; host or cells: E. coli
T2 sequence (Q9H2K2 488-649): T1 sequence (Q9H2K2 488-649)
Text: Given the anticipated impairment of cell permeability by the N-terminal TBM arginine, we investigated whether the guanidine group could be substituted. To prioritise synthesis efforts, we followed an in-silico docking approach, exploring the importance of the positive charge and hydrogen bonding interactions, linker lengths/flexibility and side chain geometry (see Supplementary Materials and Methods for details). From commercially available side chain alternatives, we identified five potential candidates for R replacements: 1H-imidazole-5-pentanoic acid, 1H-imidazole-1-pentanoic acid, 7-aminoheptanoic acid, D-arginine and L-citrulline (Supplementary Fig. 1). We next synthesised 3BP2 TBM octapeptides, incorporating the five arginine substituents at position 1, followed by fluorescence polarisation (FP) assays to assess competition of the peptides with a Cy5-labelled TBM peptide probe (Supplementary Fig. 1). We used a 16-mer TBM peptide (LPHLQRSPPDGQSFRSW, W introduced to measure A280) derived from the model substrate 3BP2, a signalling adapter protein[4], as a positive control for a competitor, and a corresponding non-binding TBM peptide bearing a glycine-to-arginine substitution at position 6[4] as a negative control. […]
Fluorescence polarisation assay
Unlabelled arginine substituent peptides were titrated up to 1 mM in the presence of 5 nM of a labelled peptide probe (Cy5-RSPPDGQS, JPT Peptide Technologies) and 5 µM TNKS2 ARC4. 3BP2 16-mer peptide was used as a positive control, and the same peptide with the glycine at position 6 mutated to arginine (G6R) was used as a negative control. Plus F ProxiPlates (PerkinElmer) were used with a 2103 Envision Multilabel plate reader (PerkinElmer), fitted with 620 nm (excitation) and 688 nm (emission) filters. Filter bandwidths were 10 nm. A Nanodrop 2000 was used for measuring protein and probe concentrations by UV absorption. TNKS2 ARC4 protein was thawed from -80 ° C, and centrifuged at 13,000 […]
Two independent experiments were performed in technical duplicate. A 2´ stock solution containing TNKS2 ARC4 protein (10 µM) and fluorescently tagged probe (10 nM) in assay buffer (25 mM HEPES-NaOH pH 7.5, 100 mM NaCl, 1 mM TCEP, 0.01% CHAPS) was prepared. A 2-fold dilution series of untagged peptide in assay buffer was made (0 – 2 mM).
Protein and peptide stock solutions were mixed 1:1. Blank samples contained assay buffer only. The plate was sealed, centrifuged for 1 min at 1000 ´ g, and then incubated in the dark for 30 min before reading. Readings were taken with 50 flashes per well, and measured in millipolarisation (mP) units. Data were exported to Microsoft Excel, and analysed in GraphPad Prism 6.0. The means of technical duplicate values were calculated for both experiments, and FP values were plotted against unlabelled peptide concentration. Curves were normalised using the overall mean maximum and minimum FP values of the control 3BP2 TBM peptide. Curves were fitted using a non-linear regression, log(inhibitor) vs. response – variable slope (four parameters) model.
Multiple sequence alignments and amino acid identity mapping
Sequences of tankyrase ARCs were aligned using ClustalX (version 2.0) 4. […]
Supplementary Figure 1. Binding of TBM peptides containing arginine substituents to TNKS2 ARC4, measured in a fluorescence polarisation (FP) competition assay. Data points are means of technical duplicates from two independent experiments. […]

Row | Kd ([1]; compound 5 mM into ARC4 200 μM, 1% DMSO) [µM] | ITC stoichiometry (N) compound:TNKS2 ARC4 [1] | IC50 [2] [µM] | Compound
1 | 1200 | 1.1 | – | O=C(NCc1ccco1)c1ccc2nccnc2c1 [compound 9]
2 | – | – | 22 | LPHLQRSPPDGQSFRSW [3BP2 16-mer peptide, 16-mer TBM peptide derived from 3BP2, W added for A280, N-terminus acetylated, C-terminus amide-capped; positive control, reference compound]

Source: publication PMC6911004, “Fragment-based screening identifies molecules targeting the substrate-binding ankyrin repeat domains of tankyrase” (Scientific Reports, 2019)
